Reference: ChEMBL document CHEMBL1201862, “PubChem BioAssay data set” (2004)
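A five-concentration, 48-hour dose response in 96-well plates underlies each endpoint, interpolated linearly between surrounding concentrations. GI50 marks 50% less growth.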 The source made the active and inactive calls. Rule as the data show it: active = GI50 up to about 1.1 µM and inactive = higher.

Columns and labels:
Assay in all cases: NCI-60 cell line screen, 48 h
K562 = tested on: K562
IGROV-1 = tested on: IGROV-1
Malme-3M = tested on: Malme-3M
LXFL 529 = tested on: LXFL 529
M14 = tested on: M14
SK-MEL-5 = tested on: SK-MEL-5
CAKI-1 = tested on: CAKI-1
NCI-H226 = tested on: NCI-H226
SF-295 = tested on: SF-295
UACC-62 = tested on: UACC-62
SW-620 = tested on: SW-620
XF498 = tested on: XF498
EKVX = tested on: EKVX
KM12 = tested on: KM12
SNB-19 = tested on: SNB-19
DMS-114 = tested on: DMS-114
SNB-75 = tested on: SNB-75
SF-268 = tested on: SF-268
LOX IMVI = tested on: LOX IMVI
OVCAR-4 = tested on: OVCAR-4
SK-MEL-28 = tested on: SK-MEL-28
MOLT-4 = tested on: MOLT-4
SNB-78 = tested on: SNB-78
NCI-H23 = tested on: NCI-H23
HCT-15 = tested on: HCT-15
KM-20L2 = tested on: KM-20L2
UACC-257 = tested on: UACC-257
HOP-18 = tested on: HOP-18
TK-10 = tested on: TK-10
RPMI-8226 = tested on: RPMI-8226
OVCAR-8 = tested on: OVCAR-8
ACHN = tested on: ACHN
SN12C = tested on: SN12C
DMS-273 = tested on: DMS-273
DLD-1 = tested on: DLD-1
SF-539 = tested on: SF-539
HT-29 = tested on: HT-29
CCRF-CEM = tested on: CCRF-CEM
NCI-H460 = tested on: NCI-H460
OVCAR-5 = tested on: OVCAR-5
HOP-62 = tested on: HOP-62
786-0 = tested on: 786-0
HCC 2998 = tested on: HCC 2998
HL-60 = tested on: HL-60
COLO 205 = tested on: COLO 205
M19-MEL = tested on: M19-MEL
UO-31 = tested on: UO-31
A498 = tested on: A498
MCF7 = tested on: MCF7
PC-3 = tested on: PC-3
Hs-578T = tested on: Hs-578T
MDA-MB-435 = tested on: MDA-MB-435
MDA-MB-231 = tested on: MDA-MB-231
U-251 = tested on: U-251
DU-145 = tested on: DU-145
BT-549 = tested on: BT-549
HOP-92 = tested on: HOP-92
A549 = tested on: A549
MDA-N = tested on: MDA-N
T47D = tested on: T47D
SR = tested on: SR
SK-MEL-2 = tested on: SK-MEL-2
NCI-H522 = tested on: NCI-H522

Q: `CC1=C2N3C[C@@H](n4c(=O)n(C)c(=O)n43)C23CCC1n1c(=O)n(C)c(=O)n13` was tested. Which GI50 (K562) did it give?
A: 61 µM (inactive)

Q: And the GI50 (IGROV-1)?
A: > 100 µM (inactive)

Q: And the GI50 (Malme-3M)?
A: > 100 µM (inactive)

Q: And the GI50 (LXFL 529)?
A: 85.1 µM (inactive)

Q: What about the GI50 (M14) of the same compound?
A: > 100 µM (inactive)

Q: What about the GI50 (SK-MEL-5) of the same compound?
A: > 100 µM (inactive)

Q: And the GI50 (CAKI-1)?
A: > 100 µM (inactive)

Q: And the GI50 (NCI-H226)?
A: > 100 µM (inactive)

Q: And the GI50 (SF-295)?
A: > 100 µM (inactive)

Q: And the GI50 (UACC-62)?
A: > 100 µM (inactive)

Q: And the GI50 (SW-620)?
A: 21.9 µM (inactive)

Q: What about the GI50 (XF498) of the same compound?
A: > 100 µM (inactive)

Q: What about the GI50 (EKVX) of the same compound?
A: > 100 µM (inactive)

Q: And the GI50 (KM12)?
A: > 100 µM (inactive)

Q: What about the GI50 (SNB-19) of the same compound?
A: > 100 µM (inactive)

Q: What about the GI50 (DMS-114) of the same compound?
A: 30.8 µM (inactive)

Q: What about the GI50 (SNB-75) of the same compound?
A: > 100 µM (inactive)

Q: What about the GI50 (SF-268) of the same compound?
A: > 100 µM (inactive)

Q: What about the GI50 (LOX IMVI) of the same compound?
A: 52.8 µM (inactive)

Q: What about the GI50 (OVCAR-4) of the same compound?
A: > 100 µM (inactive)

Q: And the GI50 (SK-MEL-28)?
A: > 100 µM (inactive)

Q: And the GI50 (MOLT-4)?
A: > 100 µM (inactive)

Q: What about the GI50 (SNB-78) of the same compound?
A: > 100 µM (inactive)

Q: What about the GI50 (NCI-H23) of the same compound?
A: > 100 µM (inactive)

Q: What about the GI50 (HCT-15) of the same compound?
A: 24.7 µM

Q: What about the GI50 (KM-20L2) of the same compound?
A: > 100 µM (inactive)

Q: What about the GI50 (UACC-257) of the same compound?
A: > 100 µM (inactive)

Q: What about the GI50 (HOP-18) of the same compound?
A: > 100 µM (inactive)

Q: What about the GI50 (TK-10) of the same compound?
A: > 100 µM (inactive)

Q: And the GI50 (RPMI-8226)?
A: 42.7 µM (inactive)

Q: What about the GI50 (OVCAR-8) of the same compound?
A: > 100 µM (inactive)

Q: What about the GI50 (ACHN) of the same compound?
A: > 100 µM (inactive)

Q: What about the GI50 (SN12C) of the same compound?
A: > 100 µM (inactive)

Q: And the GI50 (DMS-273)?
A: 38.6 µM (inactive)

Q: What about the GI50 (DLD-1) of the same compound?
A: 69.2 µM (inactive)

Q: What about the GI50 (SF-539) of the same compound?
A: > 100 µM (inactive)

Q: What about the GI50 (HT-29) of the same compound?
A: > 100 µM (inactive)

Q: What about the GI50 (CCRF-CEM) of the same compound?
A: > 100 µM (inactive)

Q: What about the GI50 (NCI-H460) of the same compound?
A: > 100 µM (inactive)

Q: What about the GI50 (OVCAR-5) of the same compound?
A: > 100 µM (inactive)

Q: What about the GI50 (HOP-62) of the same compound?
A: > 100 µM (inactive)

Q: What about the GI50 (786-0) of the same compound?
A: 35.6 µM (inactive)

Q: What about the GI50 (HCC 2998) of the same compound?
A: 7.85 µM (inactive)

Q: And the GI50 (HL-60)?
A: > 100 µM (inactive)

Q: What about the GI50 (COLO 205) of the same compound?
A: 48 µM (inactive)

Q: What about the GI50 (M19-MEL) of the same compound?
A: > 100 µM (inactive)

Q: What about the GI50 (UO-31) of the same compound?
A: > 100 µM (inactive)

Q: What about the GI50 (A498) of the same compound?
A: > 100 µM (inactive)

Q: Which GI50 (K562) does the source give for `COc1ccc(/C=C\c2cc(OC)c(OC)c(OC)c2)c(O)c1O` [COMBRETASTATIN A-1] here?
A: 0.05 µM (active)

Q: And the GI50 (IGROV-1)?
A: 1.57 µM (inactive)

Q: And the GI50 (Malme-3M)?
A: 0.678 µM (active)

Q: What about the GI50 (MCF7) of the same compound?
A: < 0.01 µM (active)

Q: What about the GI50 (PC-3) of the same compound?
A: < 0.0103 µM (active)

Q: What about the GI50 (LXFL 529) of the same compound?
A: 0.611 µM (active)

Q: And the GI50 (M14)?
A: 0.0953 µM (active)

Q: And the GI50 (SK-MEL-5)?
A: 0.05 µM (active)

Q: What about the GI50 (CAKI-1) of the same compound?
A: 0.238 µM (active)

Q: And the GI50 (SF-295)?
A: 0.05 µM (active)

Q: And the GI50 (UACC-62)?
A: 0.0394 µM (active)

Q: What about the GI50 (SW-620) of the same compound?
A: 0.0643 µM (active)

Q: What about the GI50 (XF498) of the same compound?
A: 0.0551 µM (active)

Q: And the GI50 (EKVX)?
A: 1.99 µM (inactive)

Q: And the GI50 (KM12)?
A: 0.0658 µM (active)

Q: What about the GI50 (Hs-578T) of the same compound?
A: < 0.01 µM (active)

Q: What about the GI50 (DMS-114) of the same compound?
A: 0.104 µM (active)

Q: What about the GI50 (MDA-MB-435) of the same compound?
A: < 0.01 µM (active)

Q: And the GI50 (MDA-MB-231)?
A: 0.0148 µM (active)

Q: What about the GI50 (SNB-75) of the same compound?
A: 1.31 µM (inactive)

Q: What about the GI50 (SF-268) of the same compound?
A: 0.0665 µM (active)

Q: And the GI50 (LOX IMVI)?
A: 0.119 µM (active)

Q: What about the GI50 (OVCAR-4) of the same compound?
A: 2.2 µM (inactive)

Q: What about the GI50 (SK-MEL-28) of the same compound?
A: 5.41 µM (inactive)

Q: What about the GI50 (MOLT-4) of the same compound?
A: 0.0785 µM (active)

Q: And the GI50 (SNB-78)?
A: 0.0953 µM (active)

Q: What about the GI50 (U-251) of the same compound?
A: 0.0759 µM (active)

Q: And the GI50 (KM-20L2)?
A: 8.93 µM (inactive)

Q: And the GI50 (UACC-257)?
A: 0.0582 µM (active)

Q: And the GI50 (DU-145)?
A: 0.0127 µM (active)

Q: And the GI50 (HOP-18)?
A: > 26.4 µM (inactive)

Q: And the GI50 (TK-10)?
A: 2.92 µM (inactive)

Q: What about the GI50 (BT-549) of the same compound?
A: < 0.0223 µM (active)

Q: And the GI50 (RPMI-8226)?
A: 0.0757 µM (active)

Q: And the GI50 (OVCAR-8)?
A: 0.0881 µM (active)

Q: And the GI50 (HOP-92)?
A: 0.112 µM (active)

Q: What about the GI50 (ACHN) of the same compound?
A: 0.203 µM (active)

Q: What about the GI50 (SN12C) of the same compound?
A: 0.256 µM (active)

Q: What about the GI50 (DMS-273) of the same compound?
A: 0.05 µM (active)

Q: And the GI50 (DLD-1)?
A: 0.123 µM (active)

Q: What about the GI50 (A549) of the same compound?
A: 0.178 µM (active)

Q: What about the GI50 (MDA-N) of the same compound?
A: < 0.01 µM (active)

Q: And the GI50 (HT-29)?
A: 7.03 µM (inactive)

Q: What about the GI50 (T47D) of the same compound?
A: > 49.9 µM (inactive)

Q: What about the GI50 (SR) of the same compound?
A: 2.07 µM (inactive)

Q: What about the GI50 (SK-MEL-2) of the same compound?
A: 0.0451 µM (active)

Q: And the GI50 (CCRF-CEM)?
A: 0.0682 µM (active)

Q: What about the GI50 (NCI-H460) of the same compound?
A: 0.0463 µM (active)

Q: What about the GI50 (OVCAR-5) of the same compound?
A: 4.37 µM (inactive)

Q: And the GI50 (HOP-62)?
A: 0.0893 µM (active)

Q: What about the GI50 (786-0) of the same compound?
A: 0.69 µM (active)

Q: What about the GI50 (HCC 2998) of the same compound?
A: 0.166 µM (active)

Q: And the GI50 (HL-60)?
A: 0.0698 µM (active)

Q: What about the GI50 (COLO 205) of the same compound?
A: 6.65 µM (inactive)

Q: And the GI50 (M19-MEL)?
A: 0.33 µM (active)

Q: What about the GI50 (NCI-H522) of the same compound?
A: 0.0942 µM (active)

Q: What about the GI50 (UO-31) of the same compound?
A: 0.91 µM (active)
